In patent US8974768B2, “Azo compounds reducing formation and toxicity of amyloid beta aggregation intermediates” (Max-Delbrueck-Centrum fuer Molekulare Medizin, priority 2010, dated 2015):
pIC50: −log10 of the molar value. Counter-ions that a name gives are not always drawn. Like-named read-outs stand apart in the source and are kept apart here. Marks after values point to notes of the source that are not given here.

Experiments:
[1] = target: Aβ1-42 peptide (Homo sapiens, UniProt P05067); test: Thioflavin T (Thio T)-assay of Aβ aggregation; format: biochemical
[2] = in vitro; details: human
[3] = test system: Tg2576 mice; test: Contextual fear conditioning in Tg2576 mice; format: in vivo, mouse; details: 9-month-old Tg2576 mice, feeding pellets for 12 weeks
Experimental: Groups of Tg2576 mice overexpressing the 695-amino acid isoform of human amyloid precursor protein containing a Lys670→Asn, Met671→Leu mutation (Hsiao, K. Science 1996) and wildtype control mice (13-21 per phenotype) were conditioned on day 1 by placing a subject mouse in a contextual fear conditioning chamber (Med Associates, […], Vt.). Exploration was allowed for 2 min, and an auditory cue was presented for 15 s accompanied by an electrical foot shock during the last 2 s. This procedure was repeated and mice were removed from the chamber after 30 s. Twenty hours later, mice were returned to the chamber in which conditioning occured, and their freezing behaviour (fear) was monitored. Freezing was defined as the lack of all movements, except those required for breathing (Comery, T. A., et al. Journal of Neuroscience, 2005). Data were analysed by two-way ANOVA in the S programming environment, followed by Fischer's least significant difference (LSD) pairwise comparison of group means at the p<0.05 significance level.
The contextual fear conditioning paradigm is a form of Pavlovian learning in which an association is made between stimuli and their aversive consequences. Studies of brain function implicate the amygdala in regulating fear, and the hippocampus in regulating the learning of the context in which a fearful event occurred.
The brain circuitry in wild type mice is intact and they are better able to associate an aversive foot shock with the context or environment in which the shock took place. They therefore show more freezing. Transgenic Alzheimer mice have compromised brain circuitry due to the toxic effects of amyloid-beta protein. They are therefore less able to associate an aversive shock with a context and show less freezing.
A substance that reverses the toxic effects of amyloid-beta in Alzheimer's mice will help in reconsolidating the impaired brain circuitry so that these mice begin to show more fear (freezing behavior) after treatment. This paradigm is therefore a robust method for showing the effect of drug candidate molecules in Alzheimer mice.

[4] = Detection of compounds in brain after in vivo administration; details: for Detection in brain after i.v. administration: B6C3 mouse, 5 mg/kg body weight i.v. once, brain samples; for Detectability after oral administration: mouse brain, oral gavage or feeding pellets; for Detection in brain after oral administration, feeding pellet preparation / Detection in brain after oral administration, oral gavage administration: mouse; for Detection in brain after oral administration, feeding pellet preparation: brain samples after one week feeding; for Detection in brain after oral administration, oral gavage administration: five to seven doses over two or three days, sampling 30 min. after last application
[5] = design: Detection in brain after i.v. administration: key to the marks not given beside the values; details: mouse, in vivo; for Detection in brain after i.v. administration: iv, 5 mg/kg
[6] = 30 μM Aβ1-42 peptide, 48 h at 37° C., vs DMSO control, read-out: ThioT: IC50

Aβ1-42 peptide, sequence (P05067 672-713): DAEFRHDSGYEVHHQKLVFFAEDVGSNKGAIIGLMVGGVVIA

Row | pIC50 [1, 6] | IC50 at 48 h [2] | Detection in brain after i.v. administration [4] | SMILES | further results
1 | 4.24 |  |  | O=C(O)c1cc(N=Nc2ccccc2)ccc1O [A, 2-hydroxy-5-(phenyldiazenyl)benzoic acid, reference compound] | 
2 | 3.13 |  |  | O=C(O)c1ccccc1N=Nc1ccc(O)cc1 [B, 2-((4-hydroxyphenyl)diazenyl)Benzoic acid, reference compound] | 
3 | 6.30 |  |  | O=C(O)c1cc(N=Nc2ccc(-c3ccc(N=Nc4ccc(O)c(C(=O)O)c4)cc3)cc2)ccc1O [C, (5-5′-biphenyl-4,4′-diylbis(diazene-2,1-diyl)bis(2-hydroxybenzoic acid)), reference compound] | 
4 |  | 14.1 µM |  | CN(C)CCCN1c2ccccc2Sc2ccc(Cl)cc21 [Chlorpromazine, Chlorpromazine hydrochloride, reference compound] | 
5 | 5.35 | > 30 µM | ++ | c1ccc(N=Nc2ccc(Nc3ccccc3)cc2)cc1 [Compound 1, N-phenyl-4-(phenyldiazenyl)aniline] | Contextual memory (freezing behaviour) [3]: improvement; Detectability after oral administration [4]: excellent; Detection in brain after oral administration, feeding pellet preparation [4]: ++^a), b); Detection in brain after oral administration, oral gavage administration [4]: ++^a), b)
6 | 5.48 | > 100 µM |  | Nc1ccc(N=Nc2ccc([N+](=O)[O-])cc2)cc1 [Compound 3, 4-((4-nitrophenyl)diazenyl)aniline] | 
7 | 4.88 | ~90 µM |  | Oc1ccc(N=Nc2ccccc2)cc1 [Compound 4, 4-(phenyldiazenyl)phenol] | 
8 | 4.91 | > 10 µM | ++ | Oc1ccc2ccccc2c1N=Nc1ccccn1 [Compound 5, 1-(pyridin-2-yldiazenyl)naphthalen-2-ol] | 
9 | 6.05 | ~11 µM | ++ | Nc1ccc(N=Nc2cccc(N=Nc3ccc(N)cc3N)c2)c(N)c1 [Compound 6, 4,4′-1,3-phenylenebis(diazene-2,1-diyl)dibenzene-1,3-diamine] | 
10 | 5.51 | > 3 µM | ++ | CCNc1ccc2ccccc2c1N=Nc1ccc(N=Nc2ccccc2)cc1 [Compound 7, N-ethyl-1-((4-(-phenyldiazenyl)phenyl)diazenyl)naphthalen-2-amine] | 
11 |  |  |  | CN(C)c1ccc(N=Nc2ccc(N)cc2)cc1 [Compound 9, 4-((4-aminophenyl)diazenyl)-N,N-dimethylaniline] | Detection in brain after i.v. administration [5]: ++; Detectability after oral administration [5]: excellent; Detection in brain after oral administration, feeding pellet preparation [5]: ++^a)/+^b); Detection in brain after oral administration, oral gavage administration [5]: ++^a)/+^b); Contextual memory (freezing behaviour) [3]: improvement; pIC50 [2]: < 4.00; pIC50 [1]: 5.68
12 |  |  |  | CN(C)c1ccc(N=Nc2ccc(N=C=S)cc2)cc1 [Compound 10, 4-((4-isothiocyanatophenyl)diazenyl)-N,N-dimethylaniline] | Detection in brain after i.v. administration [5]: ++; Detectability after oral administration [5]: excellent; Detection in brain after oral administration, feeding pellet preparation [5]: ++^a), b); Detection in brain after oral administration, oral gavage administration [5]: ++^a), b); pIC50 [2]: < 4.00; pIC50 [1]: 6.40
13 | 5.02 | > 100 µM |  | O=S(=O)(O)c1cccc(N=Nc2ccc(Nc3ccccc3)cc2)c1 [Compound 11] | 
14 | 5.52 | > 1 µM | − | Oc1ccc(N=Nc2ccccn2)c(O)c1 [Compound 12, 4-(pyridin-2-yldiazenyl)benzene-1,3-diol] | 
15 | 5.32 | > 3 µM | − | Oc1ccc(N=Nc2nccs2)c(O)c1 [Compound 14, 4-(thiazol-2-yldiazenyl)benzene-1,3-diol] | 
16 | 5.66 | ~31 µM |  | Oc1ccc(N=Nc2ccccc2)c(O)c1 [Compound 15, 4-(phenyldiazenyl)benzene-1,3-diol] | 
17 | 5.48 | > 30 µM |  | Cc1cccc(N=Nc2cc(C=O)c(O)cc2O)c1 [Compound 16, 2,4-dihydroxy-5-(m-tolyldiazenyl)benzaldehyde] | 

Row | pIC50 [1, 6] | IC50 at 48 h [2] | Detection in brain after i.v. administration [4] | SMILES | further results
18 | 5.10 | > 100 µM |  | Oc1ccc(N=Nc2ncn[nH]2)c(O)c1 [Compound 17, 4-((1H-1,2,4-triazol-5-yl)diazenyl)benzene-1,3-diol] | 
19 | 5.62 | ~13 µM | ++ | Cc1cc(N=Nc2nccs2)c(O)cc1O [Compound 18, 4-methyl-6-(thiazol-2-yldiazenyl)benzene-1,3-diol] | Detectability after oral administration [4]: excellent; Detection in brain after oral administration, oral gavage administration [4]: ++^b)/n.d.^b)
20 | 6.05 | ~41 µM | ++ | Cc1cc(O)cc(O)c1N=Nc1ccc([N+](=O)[O-])cc1 [Compound 19, 5-methyl-4-((4-nitrophenyl)diazenyl)benzene-1,3-diol] | 
21 | 5.89 | ~3 µM | ++ | Oc1ccc(N=Nc2cc(Cl)ccc2Cl)c(O)c1 [Compound 20, 4-((2,5-dichlorophenyl)diazenyl)benzene-1,3-diol] | 
22 |  |  |  | CN(C)c1ccc(N=Nc2ccccc2)cc1 [Compound 21, N,N-dimethyl-4-(phenyldiazenyl)aniline] | pIC50 [2]: < 4.00; pIC50 [1]: 4.77
23 | 5.62 | ~101 µM | − | Cc1cc(O)cc(O)c1N=Nc1nccs1 [Compound 22, 5-methyl-4-(thiazol-2-yldiazenyl)benzene-1,3-diol] | 
24 | 5.96 | > 30 µM |  | O=[N+]([O-])c1ccc(N=NNc2ccc(N=Nc3ccccc3)cc2)cc1 [Compound 23, 1-(4-nitrophenyl)-3-(4-(phenyldiazenyl)phenyl)triaz-1-ene] | 
25 | 5.32 | > 30 µM |  | Nc1ccc(N=Nc2ccc(Nc3ccccc3)cc2)cc1 [Compound 24, 4-((4-aminophenyl)diazenyl)-N-phenylaniline] | 
26 | 4.36 |  |  | Oc1ccc2ccccc2c1N=Nc1ccccc1 [Compound 25, 1-(phenyldiazenyl)naphthalen-2-ol] | 
27 | 4.50 |  |  | Cc1cc(N=Nc2ccccc2C)ccc1N [Compound 26, 2-methyl-4-(o-tolyldiazenyl)aniline] | 
28 | 4.21 |  |  | O=S(=O)(O)c1ccc(N=Nc2ccc(O)cc2O)cc1 [Compound 27, sodium 4-((2,4-dihydroxyphenyl)diazenyl)benzenesulfonate] | 
29 | 4.72 |  |  | O=S(=O)(O)c1cc(O)c2c(N=Nc3ccc(O)cc3O)cc(S(=O)(=O)O)cc2c1 [Compound 28, 4-((2,4-dihydroxyphenyl)diazenyl)-5-hydroxynaphthalene-2,7-disulfonic acid] | 
30 | 4.70 |  |  | O=S(=O)(O)c1ccc(O)c(N=Nc2ccc(O)cc2O)c1 [Compound 29, sodium 3-((2,4-dihydroxyphenyl)diazenyl)-4-hydroxybenzenesulfonate] | 
31 | 4.56 |  |  | COc1ccc(N=Nc2nccs2)c(O)c1 [Compound 30, 5-methoxy-2-(thiazol-2-yldiazenyl)phenol] | 
32 | 4.06 |  |  | O=[N+]([O-])c1ccc(N=Nc2c(O)ccc3ccccc23)cc1 [Compound 31, 1-((4-nitrophenyl)diazenyl)naphthalen-2-ol] | 
33 |  |  |  | c1ccc(N=Nc2ccccc2)cc1 [compound 33, 1,2-diphenyldiazene, reference compound] | pIC50 [1]: 2.96
34 | 3.98 |  |  | CCOc1ccc(N=Nc2ccc(C)cc2)cc1C [compound 34, 1-(4-ethoxy-3-methylphenyl)-2-p-tolyldiazene, reference compound] | 

Row | SMILES | pIC50 [1, 6] | IC50 at 48 h [2] | Detection in brain after i.v. administration [4] | further results
35 | O=[N+]([O-])c1ccc(N=Nc2ccc(O)cc2O)cc1 [Compound 13, 4-((4-nitrophenyl)diazenyl)benzene-1,3-diol] | 5.96 |  | ++ | pIC50 [2]: ~5.70; Detectability after oral administration [4]: excellent; Detection in brain after oral administration, feeding pellet preparation [4]: ++^a), b); Detection in brain after oral administration, oral gavage administration [4]: ++^a), b)
